Legend:
[1] = target: T1, GluN1-GluN2B NMDAR subtype (Homo sapiens, UniProt Q05586+Q13224); test: FLIPR/Ca2+ assay, NMDAR GluN1-GluN2B subtype in CHO cells; format: cell-based; conditions: CHO cells, 10 μM L-glutamate and 10 μM glycine; n.d. = 50% of inhibition could not be reached at the highest concentration used
T1 construct: host or cells: NR1-2B-CHO cells, constitutive expression
Description: (§1) These compounds were assessed for their effects on specific heterodimeric NMDAR subtypes stably overexpressed in Chinese Hamster Ovary (CHO) cells. The subtypes tested included GluN1-GluN2A, GluN1-GluN2B, GluN1-GluN2C, and GluN1-GluN2D. CHO cells expressing each of the four NMDAR subtypes were incubated with 10 μM L-glutamate, a concentration known to elicit maximal Ca^2+ influx, serving as the stimulus. Intracellular Ca^2+ levels were subsequently measured to determine the extent of NMDAR activation.
(§2) Assay buffer composition was 145 mM NaCl, 5 mM KCl, 2 mM CaCl2, 1 g/Liter D-(+)-glucose, and 20 mM HEPES (pH 7.3 adjusted with NaOH). Cells were plated at a density of 15.000/well in 384 black/clear bottom plates. […] Cells were kept at 30 °C in 5% CO2 incubator for 24 h. Cells were preloaded for 1 h with 2 μM Fluo-4 Ca^2+-sensitive probe, simultaneously with 2.5 mM probenecid, an inhibitor of nonspecific anion transport, and 500 μM ketamine to avoid cytotoxicity. […] Intracellular Ca^2+ level was monitored by FLIPR (excitation wavelength at 470–495 nm, emission wavelength at 515–575 nm) for 10 s before and 5 min after the addition of test items. All test items, including L-glutamate and glycine, were added simultaneously. […] FLIPR data were normalized as 100%, in the presence of 10 μM L-glutamate and 10 μM glycine, while as 0%, in the presence of assay buffer. […] Then, data were normalized by Excel 2013 (Microsoft Office) software, using wells added with 10 μM L-glutamate plus 10 μM glycine (column 23) as high control, and wells added with assay buffer only (column 24) as low control. To assess plate quality, Z′ calculations were performed in Excel. Z′ was calculated according to following equation: Z′ = 1–3(σh + σl)/|μh – μL| where μ and σ are the means and the standard deviations of the means of high (h) and low (l) controls, respectively. Compound concentration–response curves were plotted by Prism 8 GraphPad software, in the different experimental conditions (see Supporting Information). Data were analyzed using least-squares regression fitting, to fit data to a standard four parameters logistic equation using GraphPad Prism10. This regression fitting allowed the calculation of pIC50 and the corresponding SEM.

Histamine H1 = target: T2, Histamine H1 (Homo sapiens, UniProt P35367); test: Radioligand displacement binding assay, [3H]pyrilamine, H1
T2 construct: host or cells: CHO-K1

Sigma σ1 = target: T3, Sigma σ1 (Homo sapiens, UniProt Q99720); test: Radioligand displacement binding assay, [3H]pentazocine, sigma σ1
T3 construct: Sigma σ1; Source: Human Jurkat cells; host or cells: Jurkat

[2] = target: T4, Serotonin transporter SERT (Homo sapiens, UniProt P31645); test: Radioligand displacement binding assay, [3H]paroxetine, SERT
T4 construct: host or cells: HEK-293

[3] = target: GluN1-GluN2A NMDAR subtype (Homo sapiens, UniProt Q05586+Q12879); test: FLIPR/Ca2+ assay, NMDAR GluN1-GluN2A subtype in CHO cells; format: cell-based; conditions: CHO cells, 10 μM L-glutamate and 10 μM glycine; n.d. = 50% of inhibition could not be reached at the highest concentration used
Description: as §1, §2

Serotonin 5-HT1A = target: T5, Serotonin 5-HT1A (Homo sapiens, UniProt P08908); test: Radioligand displacement binding assay, [3H]8-OH-DPAT, 5-HT1A
T5 construct: host or cells: CHO-K1
T5 sequence (P08908 1-422): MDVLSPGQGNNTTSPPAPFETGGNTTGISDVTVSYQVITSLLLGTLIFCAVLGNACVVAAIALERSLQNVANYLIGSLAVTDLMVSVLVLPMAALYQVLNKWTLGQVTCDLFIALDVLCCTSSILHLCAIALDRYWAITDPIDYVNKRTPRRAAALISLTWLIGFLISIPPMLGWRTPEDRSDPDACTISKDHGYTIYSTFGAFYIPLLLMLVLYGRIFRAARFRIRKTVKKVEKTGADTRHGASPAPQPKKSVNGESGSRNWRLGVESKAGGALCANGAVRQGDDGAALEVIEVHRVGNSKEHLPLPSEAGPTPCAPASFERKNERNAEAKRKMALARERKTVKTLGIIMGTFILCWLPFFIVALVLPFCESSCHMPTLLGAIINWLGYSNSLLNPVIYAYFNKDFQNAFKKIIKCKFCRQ

μ opioid receptor (MOP) = target: T6, μ opioid receptor (MOP) (Homo sapiens, UniProt P35372); test: biochemical; format: binding; conditions: for inhibition at 0.3 µM / inhibition at 3 µM: read-out: % inhibition of binding, MOP
T6 construct: host or cells: CHO-K1

[4] = system: Glutamate, NMDA, Phencyclidine binding site; test: Radioligand displacement binding assay, [3H]TCP, NMDA; set-up: species or system Wistar rat
Serotonin 5-HT2A = target: T7, Serotonin 5-HT2A (Homo sapiens, UniProt P28223); test: Radioligand displacement binding assay, [3H]ketanserin, 5-HT2A
T7 construct: host or cells: CHO-K1

[5] = target: GluN1-GluN2C NMDAR subtype (Homo sapiens, UniProt Q05586+Q14957); test: FLIPR/Ca2+ assay, NMDAR GluN1-GluN2C subtype in CHO cells; format: cell-based; conditions: CHO cells, 10 μM L-glutamate and 10 μM glycine; n.d. = 50% of inhibition could not be reached at the highest concentration used
Description: as §1, §2

Serotonin 5-HT5A = target: T8, Serotonin 5-HT5A (Homo sapiens, UniProt P47898); test: Radioligand displacement binding assay, [3H]LSD, 5-HT5A
T8 construct: host or cells: CHO-K1

Serotonin 5-HT2C = target: T9, Serotonin 5-HT2C (Homo sapiens, UniProt P28335); test: Radioligand displacement binding assay, [3H]mesulergine, 5-HT2C
T9 construct: host or cells: CHO-K1
T9 sequence (P28335 33-458): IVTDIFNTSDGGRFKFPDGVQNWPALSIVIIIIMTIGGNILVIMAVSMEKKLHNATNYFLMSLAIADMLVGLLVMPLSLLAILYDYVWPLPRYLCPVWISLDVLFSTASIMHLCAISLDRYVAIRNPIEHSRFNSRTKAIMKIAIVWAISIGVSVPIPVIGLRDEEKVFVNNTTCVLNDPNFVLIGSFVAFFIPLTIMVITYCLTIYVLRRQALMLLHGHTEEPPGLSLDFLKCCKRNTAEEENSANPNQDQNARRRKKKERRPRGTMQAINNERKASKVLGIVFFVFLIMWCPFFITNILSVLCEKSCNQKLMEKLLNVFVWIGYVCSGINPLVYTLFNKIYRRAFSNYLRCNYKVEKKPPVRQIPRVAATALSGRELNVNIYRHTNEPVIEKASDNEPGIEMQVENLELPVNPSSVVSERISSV

[6] = target: GluN1-GluN2D NMDAR subtype (Homo sapiens, UniProt O15399+Q05586); test: FLIPR/Ca2+ assay, NMDAR GluN1-GluN2D subtype in CHO cells; format: cell-based; conditions: CHO cells, 10 μM L-glutamate and 10 μM glycine; n.d. = 50% of inhibition could not be reached at the highest concentration used
Description: as §1, §2

Muscarinic M5 = target: T10, Muscarinic M5 (Homo sapiens, UniProt P08912); test: Radioligand displacement binding assay, [3H]N-methylscopolamine, M5
T10 construct: host or cells: CHO-K1
T10 sequence (P08912 1-532): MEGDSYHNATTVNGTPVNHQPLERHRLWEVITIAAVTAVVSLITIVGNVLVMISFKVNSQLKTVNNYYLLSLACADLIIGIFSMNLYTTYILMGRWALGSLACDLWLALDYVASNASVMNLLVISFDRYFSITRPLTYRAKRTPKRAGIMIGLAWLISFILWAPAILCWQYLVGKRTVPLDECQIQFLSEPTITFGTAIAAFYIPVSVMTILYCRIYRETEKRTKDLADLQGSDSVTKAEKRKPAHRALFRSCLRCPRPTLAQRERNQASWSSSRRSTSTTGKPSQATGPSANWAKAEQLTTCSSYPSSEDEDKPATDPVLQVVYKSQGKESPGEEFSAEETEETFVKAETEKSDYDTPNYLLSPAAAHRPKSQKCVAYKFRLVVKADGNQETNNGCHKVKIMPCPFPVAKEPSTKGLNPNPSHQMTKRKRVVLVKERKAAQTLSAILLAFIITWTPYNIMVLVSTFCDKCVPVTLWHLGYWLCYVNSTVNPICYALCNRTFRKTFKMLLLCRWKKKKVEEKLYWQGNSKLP

[7] = target: T11, Norepinephrine transporter NET (Homo sapiens, UniProt P23975); test: Radioligand displacement binding assay, [125I]RTI-55, NET
T11 construct: host or cells: MDCK

Serotonin 5-HT7 = target: T12, Serotonin 5-HT7 (Homo sapiens, UniProt P34969); test: Radioligand displacement binding assay, [3H]LSD, 5-HT7
T12 construct: host or cells: CHO-K1
T12 sequence (P34969 whole entry): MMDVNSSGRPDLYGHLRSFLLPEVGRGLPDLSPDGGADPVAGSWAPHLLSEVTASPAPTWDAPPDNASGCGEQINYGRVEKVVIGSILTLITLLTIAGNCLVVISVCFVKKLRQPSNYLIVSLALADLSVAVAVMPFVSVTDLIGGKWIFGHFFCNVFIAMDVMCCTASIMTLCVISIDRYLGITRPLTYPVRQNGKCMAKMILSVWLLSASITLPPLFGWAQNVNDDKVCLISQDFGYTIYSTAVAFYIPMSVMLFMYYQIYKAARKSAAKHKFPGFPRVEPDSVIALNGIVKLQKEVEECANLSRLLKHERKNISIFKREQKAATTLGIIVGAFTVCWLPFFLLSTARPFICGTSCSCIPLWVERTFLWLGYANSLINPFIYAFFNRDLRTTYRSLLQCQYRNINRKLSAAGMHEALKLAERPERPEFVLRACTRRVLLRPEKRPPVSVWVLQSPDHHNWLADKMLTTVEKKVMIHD

T2 sequence (P35367 whole entry): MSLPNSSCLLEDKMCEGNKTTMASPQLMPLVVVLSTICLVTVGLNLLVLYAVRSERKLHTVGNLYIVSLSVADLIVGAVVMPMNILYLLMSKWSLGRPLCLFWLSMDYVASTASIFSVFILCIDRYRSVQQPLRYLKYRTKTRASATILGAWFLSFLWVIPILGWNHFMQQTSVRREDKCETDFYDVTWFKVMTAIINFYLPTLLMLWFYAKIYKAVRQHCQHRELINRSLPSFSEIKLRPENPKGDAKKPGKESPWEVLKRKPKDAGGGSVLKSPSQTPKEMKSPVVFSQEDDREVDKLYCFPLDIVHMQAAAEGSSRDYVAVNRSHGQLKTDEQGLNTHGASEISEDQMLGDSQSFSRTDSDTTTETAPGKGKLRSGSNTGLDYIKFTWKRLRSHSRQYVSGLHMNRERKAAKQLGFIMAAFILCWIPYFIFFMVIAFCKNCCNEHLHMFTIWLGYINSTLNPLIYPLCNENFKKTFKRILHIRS
Sequence of GluN1-GluN2D NMDAR subtype (O15399 28-1336, other chains not shown): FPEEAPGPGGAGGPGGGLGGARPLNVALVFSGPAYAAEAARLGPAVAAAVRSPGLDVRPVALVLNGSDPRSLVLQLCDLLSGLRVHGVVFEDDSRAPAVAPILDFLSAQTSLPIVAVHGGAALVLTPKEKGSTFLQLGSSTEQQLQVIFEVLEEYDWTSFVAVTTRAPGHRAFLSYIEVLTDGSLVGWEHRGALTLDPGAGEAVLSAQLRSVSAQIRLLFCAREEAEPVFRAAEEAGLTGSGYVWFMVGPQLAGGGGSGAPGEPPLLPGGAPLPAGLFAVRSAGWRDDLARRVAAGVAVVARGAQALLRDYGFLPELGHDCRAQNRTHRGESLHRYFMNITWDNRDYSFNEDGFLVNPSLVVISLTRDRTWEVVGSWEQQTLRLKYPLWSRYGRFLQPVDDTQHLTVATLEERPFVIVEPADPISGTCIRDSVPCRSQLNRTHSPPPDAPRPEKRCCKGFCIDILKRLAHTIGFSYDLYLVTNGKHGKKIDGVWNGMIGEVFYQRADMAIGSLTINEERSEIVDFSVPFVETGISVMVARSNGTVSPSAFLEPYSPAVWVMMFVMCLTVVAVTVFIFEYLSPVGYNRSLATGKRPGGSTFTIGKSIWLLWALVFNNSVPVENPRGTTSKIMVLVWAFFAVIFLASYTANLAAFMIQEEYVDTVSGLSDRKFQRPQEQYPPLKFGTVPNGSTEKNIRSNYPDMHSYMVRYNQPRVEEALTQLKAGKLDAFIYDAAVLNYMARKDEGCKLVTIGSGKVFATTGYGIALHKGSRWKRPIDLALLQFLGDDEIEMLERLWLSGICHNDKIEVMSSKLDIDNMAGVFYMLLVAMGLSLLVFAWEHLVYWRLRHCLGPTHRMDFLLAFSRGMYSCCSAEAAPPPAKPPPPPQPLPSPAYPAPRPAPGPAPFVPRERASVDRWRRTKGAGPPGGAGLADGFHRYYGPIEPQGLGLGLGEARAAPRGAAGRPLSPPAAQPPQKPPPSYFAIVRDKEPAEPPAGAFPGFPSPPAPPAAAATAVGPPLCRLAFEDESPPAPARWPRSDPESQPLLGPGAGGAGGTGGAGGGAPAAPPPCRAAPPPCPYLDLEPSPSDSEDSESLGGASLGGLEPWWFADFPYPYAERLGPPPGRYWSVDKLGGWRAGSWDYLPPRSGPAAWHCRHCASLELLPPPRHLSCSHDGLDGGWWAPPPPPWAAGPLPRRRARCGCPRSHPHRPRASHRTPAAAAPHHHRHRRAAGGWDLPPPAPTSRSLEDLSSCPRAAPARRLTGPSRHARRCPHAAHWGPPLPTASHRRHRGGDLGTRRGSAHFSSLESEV
Sequence of GluN1-GluN2A NMDAR subtype (Q12879 23-1464, other chains not shown): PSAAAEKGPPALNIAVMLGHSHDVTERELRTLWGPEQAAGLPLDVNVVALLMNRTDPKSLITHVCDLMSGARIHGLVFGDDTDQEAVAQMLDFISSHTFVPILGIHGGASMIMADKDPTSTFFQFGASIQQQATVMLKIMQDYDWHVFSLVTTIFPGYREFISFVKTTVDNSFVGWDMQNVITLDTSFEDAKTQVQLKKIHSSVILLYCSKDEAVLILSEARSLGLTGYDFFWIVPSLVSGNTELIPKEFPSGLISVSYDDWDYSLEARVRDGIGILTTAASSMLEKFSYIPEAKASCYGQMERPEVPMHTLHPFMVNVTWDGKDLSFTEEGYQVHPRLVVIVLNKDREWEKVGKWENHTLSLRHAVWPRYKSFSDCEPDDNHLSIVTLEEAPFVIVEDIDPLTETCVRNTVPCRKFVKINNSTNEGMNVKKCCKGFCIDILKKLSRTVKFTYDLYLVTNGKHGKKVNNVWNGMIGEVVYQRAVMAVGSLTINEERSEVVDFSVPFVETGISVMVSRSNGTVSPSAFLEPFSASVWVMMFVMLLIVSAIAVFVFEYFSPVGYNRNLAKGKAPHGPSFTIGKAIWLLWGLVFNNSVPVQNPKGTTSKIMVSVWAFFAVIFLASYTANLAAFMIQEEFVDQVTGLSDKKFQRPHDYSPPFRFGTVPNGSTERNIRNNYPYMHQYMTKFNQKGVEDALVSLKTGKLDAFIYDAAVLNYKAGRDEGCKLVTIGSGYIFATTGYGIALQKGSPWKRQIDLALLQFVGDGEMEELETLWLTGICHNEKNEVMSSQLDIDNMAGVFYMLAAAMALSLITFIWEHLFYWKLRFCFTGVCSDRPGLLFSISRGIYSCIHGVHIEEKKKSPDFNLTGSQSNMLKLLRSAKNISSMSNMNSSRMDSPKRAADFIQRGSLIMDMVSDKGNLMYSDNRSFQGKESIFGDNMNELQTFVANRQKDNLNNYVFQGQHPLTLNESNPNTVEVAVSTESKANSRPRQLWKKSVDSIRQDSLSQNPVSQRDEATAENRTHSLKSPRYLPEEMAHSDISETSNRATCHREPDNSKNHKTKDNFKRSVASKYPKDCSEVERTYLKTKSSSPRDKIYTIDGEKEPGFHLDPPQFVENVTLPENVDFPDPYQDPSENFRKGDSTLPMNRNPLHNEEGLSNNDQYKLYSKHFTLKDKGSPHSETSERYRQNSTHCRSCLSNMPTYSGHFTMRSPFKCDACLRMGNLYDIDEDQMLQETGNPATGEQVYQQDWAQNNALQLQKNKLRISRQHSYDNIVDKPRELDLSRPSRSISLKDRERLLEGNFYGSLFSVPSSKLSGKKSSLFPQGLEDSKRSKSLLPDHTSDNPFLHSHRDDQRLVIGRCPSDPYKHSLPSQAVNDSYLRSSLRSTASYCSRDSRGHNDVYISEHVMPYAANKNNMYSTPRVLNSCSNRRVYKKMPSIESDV
T3 sequence (Q99720 whole entry): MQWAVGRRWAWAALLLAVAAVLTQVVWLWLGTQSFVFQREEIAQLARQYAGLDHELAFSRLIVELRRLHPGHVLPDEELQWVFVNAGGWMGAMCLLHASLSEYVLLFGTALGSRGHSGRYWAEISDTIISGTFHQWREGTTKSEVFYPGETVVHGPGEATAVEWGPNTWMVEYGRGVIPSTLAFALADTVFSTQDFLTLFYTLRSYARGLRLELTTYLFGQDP
T8 sequence (P47898 whole entry): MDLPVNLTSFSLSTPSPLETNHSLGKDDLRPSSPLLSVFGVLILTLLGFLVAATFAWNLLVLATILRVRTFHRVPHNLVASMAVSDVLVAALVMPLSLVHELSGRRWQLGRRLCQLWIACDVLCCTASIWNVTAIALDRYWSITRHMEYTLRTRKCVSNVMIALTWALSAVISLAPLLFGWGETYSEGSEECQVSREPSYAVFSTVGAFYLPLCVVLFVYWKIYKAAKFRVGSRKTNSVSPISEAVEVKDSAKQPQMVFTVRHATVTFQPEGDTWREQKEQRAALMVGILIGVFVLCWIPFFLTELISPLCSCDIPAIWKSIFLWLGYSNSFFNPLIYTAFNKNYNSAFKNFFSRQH
T11 sequence (P23975 whole entry): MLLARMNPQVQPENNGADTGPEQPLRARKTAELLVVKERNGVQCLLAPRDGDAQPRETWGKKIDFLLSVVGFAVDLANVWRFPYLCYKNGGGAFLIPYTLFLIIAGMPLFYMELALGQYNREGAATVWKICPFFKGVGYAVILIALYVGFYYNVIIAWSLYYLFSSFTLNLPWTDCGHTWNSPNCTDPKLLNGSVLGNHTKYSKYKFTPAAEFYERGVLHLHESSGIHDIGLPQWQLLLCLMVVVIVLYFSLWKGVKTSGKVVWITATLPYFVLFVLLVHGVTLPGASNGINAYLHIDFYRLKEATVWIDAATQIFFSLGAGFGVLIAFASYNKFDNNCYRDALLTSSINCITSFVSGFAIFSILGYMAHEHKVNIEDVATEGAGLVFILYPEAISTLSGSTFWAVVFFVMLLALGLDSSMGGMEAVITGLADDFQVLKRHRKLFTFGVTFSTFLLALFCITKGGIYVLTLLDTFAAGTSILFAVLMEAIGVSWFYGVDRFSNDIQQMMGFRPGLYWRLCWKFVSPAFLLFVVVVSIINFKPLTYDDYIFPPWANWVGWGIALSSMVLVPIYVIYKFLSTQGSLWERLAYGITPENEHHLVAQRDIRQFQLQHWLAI

Structure (SMILES)	pIC50 (mean ± SEM) GluN1-GluN2B [1]	inhibition at 10 µM (Histamine H1) [%]	inhibition at 30 µM (Histamine H1) [%]	inhibition at 0.3 µM (Sigma σ1) [%]	inhibition at 3 µM (Sigma σ1) [%]	inhibition at 1 µM [2] [%]	inhibition at 10 µM ([2]; 10 μM) [%]	pIC50 (mean ± SEM) GluN1-GluN2A [3]	inhibition at 0.3 µM (Serotonin 5-HT1A) [%]	inhibition at 3 µM (Serotonin 5-HT1A) [%]	inhibition at 0.3 µM (μ opioid receptor (MOP)) [%]	inhibition at 3 µM (μ opioid receptor (MOP)) [%]	% inhibition of binding, NMDA ([4]; 1 μM) [%]	inhibition at 0.3 µM (Serotonin 5-HT2A) [%]	inhibition at 3 µM (Serotonin 5-HT2A) [%]	pIC50 (mean ± SEM) GluN1-GluN2C [5]	inhibition at 1 µM (Serotonin 5-HT5A) [%]	inhibition at 10 µM (Serotonin 5-HT5A) [%]	inhibition at 0.3 µM (Serotonin 5-HT2C) [%]	inhibition at 3 µM (Serotonin 5-HT2C) [%]	also measured
CC[C@@H](O)C(C[C@H](C)N)(c1ccccc1)c1ccccc1 [(3R,6S)-DNML, (3R,6S)-6-amino-4,4-diphenylheptan-3-ol]	4.6 ± 0.062	4	19	17	61	29	65	4.6 ± 0.077	1	-1	-3	26	12	6	9	5.1 ± 0.062	-1	16	3	-1	% inhibition of binding, SERT ([2]; 10 μM): displaced; pIC50 (mean ± SEM) GluN1-GluN2D [6]: 4.9 ± 0.093; inhibition at 1 µM (Muscarinic M5): 9%; inhibition at 10 µM (Muscarinic M5): 13%; inhibition at 1 µM [7]: 0%; inhibition at 10 µM [7]: 5%; inhibition at 1 µM (Serotonin 5-HT7): 14%; inhibition at 10 µM (Serotonin 5-HT7): 12%
CC[C@H](O)C(C[C@H](C)NC)(c1ccccc1)c1ccccc1 [(3S,6S)-NML, (3S,6S)-6-(methylamino)-4,4-diphenylheptan-3-ol]	4.7 ± 0.080	33	65	46	77	2	25	4.6 ± 0.062	-4	1	65	95	9	-10	-11	4.7 ± 0.042	1	10	5	28	displacement at the histamine H1 receptor, in words (Histamine H1; concentration not given): significant displacement percentages; displacement at the Sigma-1 (σ1) receptor, in words (Sigma σ1; concentration not given): high displacement percentages; displacement at the MOP, in words (μ opioid receptor (MOP); concentration not given): high displacement percentages; pIC50 (mean ± SEM) GluN1-GluN2D [6]: 4.6 ± 0.065; inhibition at 1 µM (Muscarinic M5): 2%; inhibition at 10 µM (Muscarinic M5): 15%; inhibition at 1 µM [7]: -12%; inhibition at 10 µM [7]: 12%; inhibition at 1 µM (Serotonin 5-HT7): 12%; inhibition at 10 µM (Serotonin 5-HT7): 23%
CC[C@H](O)C(C[C@@H](C)N)(c1ccccc1)c1ccccc1 [(3S,6R)-DNML, (3S,6R)-6-amino-4,4-diphenylheptan-3-ol]	4.4 ± 0.042	15	28	-4	18	15	36	4.5 ± 0.031	-11	-1	9	23	8	9	10	4.6 ± 0.038	-1	11	9	27	% inhibition of binding, NMDA ([4]; 10 μM): 38%; pIC50 (mean ± SEM) GluN1-GluN2D [6]: 4.7 ± 0.061; inhibition at 1 µM (Muscarinic M5): 12%; inhibition at 10 µM (Muscarinic M5): 39%; inhibition at 1 µM [7]: 0%; inhibition at 10 µM [7]: 22%; inhibition at 1 µM (Serotonin 5-HT7): 8%; inhibition at 10 µM (Serotonin 5-HT7): 5%
CC[C@@H](O)C(C[C@H](C)NC)(c1ccccc1)c1ccccc1 [(3R,6S)-NML, (3R,6S)-6-(methylamino)-4,4-diphenylheptan-3-ol]	4.5 ± 0.053	6	43	47	80	12	45	4.4 ± 0.037	5	11	1	29	8	0	4	4.6 ± 0.046	-1	15	-4	5	% inhibition of binding, NMDA ([4]; 10 μM): 48%; pIC50 (mean ± SEM) GluN1-GluN2D [6]: 4.7 ± 0.057; inhibition at 1 µM (Muscarinic M5): 11%; inhibition at 10 µM (Muscarinic M5): 46%; inhibition at 1 µM [7]: 10%; inhibition at 10 µM [7]: 14%; inhibition at 1 µM (Serotonin 5-HT7): 14%; inhibition at 10 µM (Serotonin 5-HT7): 28%

From article PMC11912475 (Journal of Medicinal Chemistry, 2025)
